{"source": "patent US20240124528A1", "about": "“ANTAGONIST OF INTERLEUKIN-17B RECEPTOR (IL-17RB) AND USE THEREOF” (Academia Sinica, priority 2020, published 2024)", "format_in_all_cases": "cell-based, human", "key": {"[1]": {"tested_on": "pancreatic cancer cells (AsPC1 and BxPC3) and breast cancer cells (MB361 and MB468)", "assay": "RT-qPCR of cytokine gene expression after CEP-1347", "conditions": "CEP-1347 200 nM", "description": "FIGS. 15A to 15D include charts showing that CEP-1347 inhibits IL-17RB Y447 phosphorylation, ERK1/2 phosphorylation, and aggressiveness of both pancreatic and breast cancer cells. Pancreatic cancer cells (AsPC1 and BxPC3) and breast cancer cells (MB361 and MB468) were transduced with lentiviral shLacZ (control) and lentiviral shMLK4, separately. In comparison to MLK4-knockdown cells, shLacZ-transduced cancer cells were pretreated with CEP-1347 (200 nM), a non-selective inhibitor of MLKs, before adding 50 ng/ml rIL-17B in serum-free conditions for 30 mins. The cell lysates were immunoblotted directly with the indicated antibodies (FIG. 15A). The same cells were measured by RT-qPCR for the cytokine gene expression (n=3) (FIG. 15B), for SACF assay (n=4) (FIG. 15C), and for invasion assay (n=4) (FIG. 15D). […]\nTotal RNA from cultured cells and tumor tissue was isolated using Trizol reagent (Thermo Fisher Scientific) and reversely transcribed with Transcriptor First Strand cDNA Synthesis Kit (Roche Life Science) for gene expression analysis according to manufacturer's instructions. Quantitative real-time RT-PCR assay was run on the StepOnePlus system (Applied Biosystems) using KAPA SYBR FAST qPCR Kit (Kapa Biosystems) according to manufacturer's instructions, and data was analyzed by StepOne Software v2.2.2. β-actin mRNA was used as an internal control. […]"}, "[2]": {"tested_on": "pancreatic cancer cells (AsPC1 and BxPC3) and breast cancer cells (MB361 and MB468)", "assay": "Invasion assay with CEP-1347", "description": "(§1) FIGS. 15A to 15D include charts showing that CEP-1347 inhibits IL-17RB Y447 phosphorylation, ERK1/2 phosphorylation, and aggressiveness of both pancreatic and breast cancer cells. Pancreatic cancer cells (AsPC1 and BxPC3) and breast cancer cells (MB361 and MB468) were transduced with lentiviral shLacZ (control) and lentiviral shMLK4, separately. In comparison to MLK4-knockdown cells, shLacZ-transduced cancer cells were pretreated with CEP-1347 (200 nM), a non-selective inhibitor of MLKs, before adding 50 ng/ml rIL-17B in serum-free conditions for 30 mins. The cell lysates were immunoblotted directly with the indicated antibodies (FIG. 15A). The same cells were measured by RT-qPCR for the cytokine gene expression (n=3) (FIG. 15B), for SACF assay (n=4) (FIG. 15C), and for invasion assay (n=4) (FIG. 15D). All the data are mean±s.d. *P<0.05, **P<0.01 by two-tailed Student's t-test.\nFor invasion assay, about 10^4 cells were seeded in the top chamber with Matrigel-coated membrane (24-well BD Falcon HTS Fluoro Block insert; pore size, 8 μm; BD Biosciences) in serum-free media containing rIL-17B, DMSO, or CEP-1347. Medium supplemented with 10% serum was used as a chemoattractant in the lower chamber. After 24- or 48 hrs incubation, the invading cells were fixed with methanol, stained with 4,6-diamidino-2-phenylindole (DAPI) and counted by fluorescence microscopy."}, "MLKs": {"tested_on": "MLKs", "assay": "Immunoblotting of IL-17B-induced phosphorylation after CEP-1347 pretreatment", "conditions": "CEP-1347 200 nM pretreatment, then 50 ng/ml rIL-17B 30 mins; AsPC1, BxPC3, MB361, MB468", "description": "as §1\nImmunoblotting analysis was performed after proteins were separated by gradient SDS-PAGE (HR gradient gel solution, TFUGG420, TOOLS) and transferred to PVDF membrane, with overnight incubation with diluted primary antibody followed by diluted horseradish peroxidase-conjugated anti-rabbit, anti-mouse or anti-goat antibody (Jackson ImmunoResearch) as described (48-50). […] Optical density was determined using the National Institutes of Health ImageJ program."}, "[3]": {"tested_on": "pancreatic cancer cells (AsPC1 and BxPC3) and breast cancer cells (MB361 and MB468)", "assay": "SACF assay with CEP-1347", "description": "as §1\nSoft agar colony formation assay was performed as described (7). Briefly, 250010000 cells were seeded in a layer of 0.35% agar/complete growth medium over a layer of 0.5% agar/complete growth medium in a 12-well plate. Cell medium containing the indicated concentration of rIL-17B (R&D), DMSO (Sigma-Aldrich), or CEP-1347 (Tocris Bioscience) was replenished every three days. […] Crystal violet-stained colonies greater than 50 μm in size were counted and analyzed objectively by light microscopy."}}, "note": "Entries after “also recorded” stand apart in the source; their conditions may differ."}
{"smiles": "CCSCc1ccc2c(c1)c1c3c(c4c5cc(CSCC)ccc5n5c4c1n2[C@H]1C[C@](O)(C(=O)OC)[C@]5(C)O1)CNC3=O", "note": "[CEP-1347]", "values": [{"measurement": "cytokine gene expressions", "setting": "[1]", "value": "abrogated"}, {"measurement": "invasion properties of the cancer cells", "setting": "[2]", "value": "abrogated"}, {"measurement": "ERK1/2 phosphorylation", "setting": "MLKs", "value": "abrogated; also recorded: inhibits"}, {"measurement": "IL-17RB (Y447) phosphorylation", "setting": "MLKs", "value": "abrogated; also recorded: inhibits"}, {"measurement": "aggressiveness of both pancreatic and breast cancer cells", "setting": "[3]; CEP-1347 200 nM, SACF and invasion assays", "value": "inhibits"}, {"measurement": "colony formation", "setting": "[3]; CEP-1347, AsPC1, BxPC3, MB361, MB468", "value": "abrogated"}]}
